Results: article PMC8889550 (JACS Au, 2022)

Target: T1, horseradish peroxidase (HRP) (Armoracia rusticana, UniProt P00433)
T1 sequence (P00433 31-338): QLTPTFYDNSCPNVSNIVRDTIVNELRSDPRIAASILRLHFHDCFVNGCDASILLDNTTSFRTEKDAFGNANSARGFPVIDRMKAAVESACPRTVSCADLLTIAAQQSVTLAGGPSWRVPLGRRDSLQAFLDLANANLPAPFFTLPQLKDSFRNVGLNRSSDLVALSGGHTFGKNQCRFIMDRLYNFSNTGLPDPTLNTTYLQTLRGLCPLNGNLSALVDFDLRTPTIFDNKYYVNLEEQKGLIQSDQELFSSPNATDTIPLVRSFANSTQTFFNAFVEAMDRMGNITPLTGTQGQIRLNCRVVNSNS
Assay: coupled GOx/HRP cascade, Resorufin formation in plate reader
Type: biochemical
Settings: 200 μM Amplex Red; H2O2 generated by GOx from glucose; DNA-functionalized enzyme

## CC(=O)N1c2ccc(O)cc2Oc2cc(O)ccc21 [Amplex Red]
  coupled GOx/HRP cascade, Resorufin formation in plate reader: Amplex Red → Resorufin catalyzed by HRP
